# Measurements from ChEMBL document CHEMBL1201862, “PubChem BioAssay data set” (2004).
#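 Briefly, cells in 96-well plates were exposed to five compound concentrations for 48 h, and endpoints were estimated by linear interpolation. The concentration for 50% growth inhibition is given as GI50.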 The source made the active and inactive calls. Rule as the data show it: active = GI50 up to about 1.1 µM and inactive = higher.
# What was measured:
# Test in all cases: NCI anticancer screen, dose series, 48 h
# 786-0 = system: 786-0
# A498 = system: A498
# A549 = system: A549
# BT-549 = system: BT-549
# CAKI-1 = system: CAKI-1
# CCRF-CEM = system: CCRF-CEM
# COLO 205 = system: COLO 205
# DU-145 = system: DU-145
# EKVX = system: EKVX
# HCC 2998 = system: HCC 2998
# HCT-116 = system: HCT-116
# HL-60 = system: HL-60
# HOP-62 = system: HOP-62
# HOP-92 = system: HOP-92
# HT-29 = system: HT-29
# Hs-578T = system: Hs-578T
# IGROV-1 = system: IGROV-1
# K562 = system: K562
# KM12 = system: KM12
# LOX IMVI = system: LOX IMVI
# M14 = system: M14
# MCF7 = system: MCF7
# MDA-MB-231 = system: MDA-MB-231
# MDA-MB-435 = system: MDA-MB-435
# MDA-N = system: MDA-N
# MOLT-4 = system: MOLT-4
# Malme-3M = system: Malme-3M
# NCI-H226 = system: NCI-H226
# NCI-H23 = system: NCI-H23
# NCI-H460 = system: NCI-H460
# NCI-H522 = system: NCI-H522
# NCI/ADR-RES = system: NCI/ADR-RES
# OVCAR-3 = system: OVCAR-3
# OVCAR-4 = system: OVCAR-4
# OVCAR-5 = system: OVCAR-5
# PC-3 = system: PC-3
# RXF 393 = system: RXF 393
# SF-268 = system: SF-268
# SF-295 = system: SF-295
# SF-539 = system: SF-539
# SK-MEL-28 = system: SK-MEL-28
# SK-MEL-2 = system: SK-MEL-2
# SK-MEL-5 = system: SK-MEL-5
# SK-OV-3 = system: SK-OV-3
# SN12C = system: SN12C
# SNB-19 = system: SNB-19
# SNB-75 = system: SNB-75
# SR = system: SR
# SW-620 = system: SW-620
# T47D = system: T47D
# TK-10 = system: TK-10
# U-251 = system: U-251
# UACC-257 = system: UACC-257
# UACC-62 = system: UACC-62
# UO-31 = system: UO-31
# ACHN = system: ACHN
# HCT-15 = system: HCT-15
# OVCAR-8 = system: OVCAR-8
# RPMI-8226 = system: RPMI-8226
smiles,measurement,setting,value
C/C(=N\Nc1nc2ccccc2n1C)c1ccc2ccccc2n1,GI50,786-0,1.99 µM (inactive)
same,GI50,A498,3.69 µM (inactive)
same,GI50,A549,2.71 µM (inactive)
same,GI50,BT-549,> 22.3 µM (inactive)
same,GI50,CAKI-1,0.611 µM (active)
same,GI50,CCRF-CEM,0.244 µM (active)
same,GI50,COLO 205,0.228 µM (active)
same,GI50,DU-145,3.86 µM (inactive)
same,GI50,EKVX,0.144 µM (active)
same,GI50,HCC 2998,0.256 µM (active)
same,GI50,HCT-116,0.791 µM (active)
same,GI50,HL-60,0.774 µM (active)
same,GI50,HOP-62,3.13 µM (inactive)
same,GI50,HOP-92,2.48 µM (inactive)
same,GI50,HT-29,0.0861 µM (active)
same,GI50,Hs-578T,15.4 µM (inactive)
same,GI50,IGROV-1,0.016 µM (active)
same,GI50,K562,2.07 µM (inactive)
same,GI50,KM12,0.528 µM (active)
same,GI50,LOX IMVI,1.64 µM (inactive)
same,GI50,M14,1.02 µM (active)
same,GI50,MCF7,0.406 µM (active)
same,GI50,MDA-MB-231,0.916 µM (active)
same,GI50,MDA-MB-435,4.24 µM (inactive)
same,GI50,MDA-N,5.04 µM (inactive)
same,GI50,MOLT-4,0.414 µM (active)
same,GI50,Malme-3M,1.59 µM (inactive)
same,GI50,NCI-H226,1.87 µM (inactive)
same,GI50,NCI-H23,4.41 µM (inactive)
same,GI50,NCI-H460,2.56 µM (inactive)
same,GI50,NCI-H522,0.416 µM (active)
same,GI50,NCI/ADR-RES,1.63 µM (inactive)
same,GI50,OVCAR-3,0.0489 µM (active)
same,GI50,OVCAR-4,0.19 µM (active)
same,GI50,OVCAR-5,1.53 µM (inactive)
same,GI50,PC-3,0.212 µM (active)
same,GI50,RXF 393,5.2 µM (inactive)
same,GI50,SF-268,2.87 µM (inactive)
same,GI50,SF-295,2.21 µM (inactive)
same,GI50,SF-539,4.53 µM (inactive)
same,GI50,SK-MEL-28,5.09 µM (inactive)
same,GI50,SK-MEL-2,6.56 µM (inactive)
same,GI50,SK-MEL-5,1.24 µM (inactive)
same,GI50,SK-OV-3,12 µM (inactive)
same,GI50,SN12C,1.82 µM (inactive)
same,GI50,SNB-19,4.66 µM (inactive)
same,GI50,SNB-75,7.24 µM (inactive)
same,GI50,SR,0.51 µM (active)
same,GI50,SW-620,0.35 µM (active)
same,GI50,T47D,< 0.01 µM (active)
same,GI50,TK-10,2.53 µM (inactive)
same,GI50,U-251,2 µM (inactive)
same,GI50,UACC-257,4.36 µM (inactive)
same,GI50,UACC-62,2.32 µM (inactive)
same,GI50,UO-31,1.04 µM (active)
N#CC12C(=O)N=C(N)C1(C#N)C(c1ccco1)NC1=C2CCCC1 (stereo not drawn),GI50,786-0,> 100 µM (inactive)
same,GI50,A498,> 100 µM (inactive)
same,GI50,A549,> 100 µM (inactive)
same,GI50,ACHN,> 100 µM (inactive)
same,GI50,BT-549,> 100 µM (inactive)
same,GI50,CAKI-1,> 100 µM (inactive)
same,GI50,CCRF-CEM,> 100 µM (inactive)
same,GI50,COLO 205,> 100 µM (inactive)
same,GI50,DU-145,> 100 µM (inactive)
same,GI50,EKVX,> 100 µM (inactive)
same,GI50,HCC 2998,> 100 µM (inactive)
same,GI50,HCT-116,> 100 µM (inactive)
same,GI50,HCT-15,> 100 µM
same,GI50,HL-60,> 100 µM (inactive)
same,GI50,HOP-62,> 100 µM (inactive)
same,GI50,HOP-92,> 100 µM (inactive)
same,GI50,HT-29,> 100 µM (inactive)
same,GI50,Hs-578T,> 100 µM (inactive)
same,GI50,IGROV-1,> 100 µM (inactive)
same,GI50,KM12,> 100 µM (inactive)
same,GI50,LOX IMVI,> 100 µM (inactive)
same,GI50,M14,> 100 µM (inactive)
same,GI50,MCF7,75 µM (inactive)
same,GI50,MDA-MB-231,> 100 µM (inactive)
same,GI50,MDA-MB-435,> 100 µM (inactive)
same,GI50,MDA-N,> 100 µM (inactive)
same,GI50,MOLT-4,> 100 µM (inactive)
same,GI50,Malme-3M,> 100 µM (inactive)
same,GI50,NCI-H226,> 100 µM (inactive)
same,GI50,NCI-H23,> 100 µM (inactive)
same,GI50,NCI-H460,> 100 µM (inactive)
same,GI50,NCI-H522,> 100 µM (inactive)
same,GI50,NCI/ADR-RES,> 100 µM (inactive)
same,GI50,OVCAR-4,> 100 µM (inactive)
same,GI50,OVCAR-5,> 100 µM (inactive)
same,GI50,OVCAR-8,> 100 µM (inactive)
same,GI50,PC-3,> 100 µM (inactive)
same,GI50,RPMI-8226,> 100 µM (inactive)
same,GI50,RXF 393,> 100 µM (inactive)
same,GI50,SF-268,> 100 µM (inactive)
same,GI50,SF-295,> 100 µM (inactive)
same,GI50,SK-MEL-28,> 100 µM (inactive)
same,GI50,SK-MEL-2,> 100 µM (inactive)
same,GI50,SK-MEL-5,> 100 µM (inactive)
same,GI50,SK-OV-3,> 100 µM (inactive)
same,GI50,SN12C,> 100 µM (inactive)
same,GI50,SNB-19,> 100 µM (inactive)
same,GI50,SR,> 100 µM (inactive)
same,GI50,SW-620,> 100 µM (inactive)
same,GI50,T47D,> 100 µM (inactive)
same,GI50,TK-10,> 100 µM (inactive)
same,GI50,U-251,> 100 µM (inactive)
same,GI50,UACC-257,> 100 µM (inactive)
same,GI50,UACC-62,> 100 µM (inactive)
same,GI50,UO-31,> 100 µM (inactive)
O=c1oc2ccccc2cc1-c1csc(Nc2ccc(F)cc2)n1,GI50,786-0,1.79 µM (inactive)
same,GI50,A498,1.29 µM (inactive)
same,GI50,A549,1.67 µM (inactive)
same,GI50,ACHN,8.55 µM (inactive)
same,GI50,BT-549,6.47 µM (inactive)
same,GI50,CAKI-1,2.94 µM (inactive)
same,GI50,CCRF-CEM,2.77 µM (inactive)
same,GI50,COLO 205,4.47 µM (inactive)
same,GI50,DU-145,2.89 µM (inactive)
same,GI50,EKVX,1.97 µM (inactive)
same,GI50,HCC 2998,5.48 µM (inactive)
same,GI50,HCT-116,2.33 µM (inactive)
same,GI50,HCT-15,2.86 µM
same,GI50,HL-60,4.59 µM (inactive)
same,GI50,HOP-62,2.99 µM (inactive)
same,GI50,HOP-92,6.53 µM (inactive)
same,GI50,HT-29,3.43 µM (inactive)
same,GI50,Hs-578T,2.36 µM (inactive)
same,GI50,IGROV-1,4.99 µM (inactive)
same,GI50,K562,2.56 µM (inactive)
same,GI50,KM12,5.5 µM (inactive)
same,GI50,LOX IMVI,4.7 µM (inactive)
same,GI50,M14,4.25 µM (inactive)
same,GI50,MCF7,2.77 µM (inactive)
same,GI50,MDA-MB-231,11.3 µM (inactive)
same,GI50,MDA-MB-435,4.32 µM (inactive)
same,GI50,MDA-N,4.66 µM (inactive)
same,GI50,MOLT-4,5.18 µM (inactive)
same,GI50,NCI-H226,3.1 µM (inactive)
same,GI50,NCI-H23,2.9 µM (inactive)
same,GI50,NCI-H460,5.05 µM (inactive)
same,GI50,NCI-H522,1.91 µM (inactive)
same,GI50,NCI/ADR-RES,3.46 µM (inactive)
same,GI50,OVCAR-3,6.55 µM (inactive)
same,GI50,OVCAR-4,7.31 µM (inactive)
same,GI50,OVCAR-5,8.38 µM (inactive)
same,GI50,OVCAR-8,2.77 µM (inactive)
same,GI50,PC-3,5.43 µM (inactive)
same,GI50,RPMI-8226,0.216 µM (active)
same,GI50,RXF 393,6.56 µM (inactive)
same,GI50,SF-268,3.15 µM (inactive)
same,GI50,SF-295,3.62 µM (inactive)
same,GI50,SF-539,1.91 µM (inactive)
same,GI50,SK-MEL-28,0.382 µM (active)
same,GI50,SK-MEL-2,14.8 µM (inactive)
same,GI50,SK-MEL-5,10.4 µM (inactive)
same,GI50,SK-OV-3,5.77 µM (inactive)
same,GI50,SN12C,3.01 µM (inactive)
same,GI50,SNB-19,8.15 µM (inactive)
same,GI50,SNB-75,2.07 µM (inactive)
same,GI50,SR,2.36 µM (inactive)
same,GI50,SW-620,5 µM (inactive)
same,GI50,T47D,2.3 µM (inactive)
same,GI50,TK-10,2.98 µM (inactive)
same,GI50,U-251,2.83 µM (inactive)
same,GI50,UACC-257,14.8 µM (inactive)
same,GI50,UACC-62,12.6 µM (inactive)
same,GI50,UO-31,2.33 µM (inactive)
